Measurements as given in ChEMBL document CHEMBL4346733, “Evaluation of amidoxime derivatives as prodrug candidates of potent bis-cationic antimalarials” (Bioorg Med Chem Lett, 2019).
pIC50: −log10 of the molar value. Active and inactive are the calls of the source. The rule behind the calls is not given here.

Tests used:
[1] = test system: Plasmodium vinckei petteri; assay: Antimalarial activity against Plasmodium vinckei petteri 279BY infected in Swiss mouse assessed as reduction in parasitemia administered once daily via intraperitoneal route starting from day 1 to day 4 post infection measured on day 5 Giemsa staining based flow cytometric analysis; format: functional; details: ip
[2] = test system: Plasmodium vinckei petteri; assay: Antimalarial activity against Plasmodium vinckei petteri 279BY infected in Swiss mouse assessed as reduction in parasitemia administered once daily via oral gavage starting from day 1 to day 4 post infection measured on day 5 Giemsa staining based flow cytometric analysis; format: functional
[3] = test system: Plasmodium vinckei petteri; assay: (§1) Antimalarial activity against Plasmodium vinckei petteri 279BY infected in Swiss mouse assessed as reduction in parasitemia at 20 mg/kg, ip once daily for 4 consecutive days starting from day 1 to day 4 post infection and measured on day 5 Giemsa staining based flow cytometric analysis; format: functional, organism-based
[4] = test system: Plasmodium falciparum; assay: Antimalarial activity against chloroquine-sensitive Plasmodium falciparum Nigerian infected in human blood after 48 hrs by [3H]-hypoxanthine incorporation assay; format: functional, organism-based
[5] = test system: Plasmodium vinckei petteri; assay: as §1, with “dosed intraperitoneally” for “20 mg/kg, ip”, “28 by” for “5”; format: functional; set-up: scale not given: the % may be the effect or the level left
[6] = test system: Plasmodium vinckei petteri; assay: Selectivity index, ratio of ED50 for antimalarial activity against Plasmodium vinckei petteri 279BY infected in Swiss mouse administered via intraperitoneal route to ED50 for antimalarial activity against Plasmodium vinckei petteri 279BY infected in Swiss mouse administered via oral route; format: functional
[7] = test system: Plasmodium falciparum; assay: Antimalarial activity against chloroquine-sensitive Plasmodium falciparum Nigerian after 48 hrs by [3H]-hypoxanthine incorporation assay; format: functional, organism-based
[8] = Retention time of compound at 0.05 mg/ml by HPLC analysis; format: physicochemical
[9] = Retention time of compound in human liver microsomes at 0.5 mM after 2 hrs HPLC-UV analysis; format: ADME, Microsome; details: 500 µM
[10] = Drug metabolism in human liver microsomes assessed as monoamidine-1 formation by measuring retention time of metabolite at 0.5 mM after 2 hrs by HPLC-UV analysis; format: ADME, Microsome; details: 500 µM
[11] = Drug metabolism in human liver microsomes assessed as 1-(4-Amidinophenoxy)-8-amidinooctane dihydrochloride formation by measuring retention time of metabolite at 0.5 mM after 2 hrs by HPLC-UV analysis; format: ADME, Microsome; details: 500 µM
[12] = Drug metabolism in human liver microsomes assessed as disappearance of parent compound at 0.5 mM after 2 hrs by HPLC-UV analysis; format: ADME, Microsome; details: read-out: Drug metabolism
[13] = Stability of compound in human plasma at 1000 ug/ml up to 120 mins by HPLC-UV analysis; format: ADME, cell-free; details: 2 h
[14] = Stability of compound in human blood at 1000 ug/ml up to 120 mins by HPLC-UV analysis; format: ADME, tissue-based; details: 2 h
[15] = Drug metabolism in human liver microsomes assessed as 1-(4-N-pyrrolidinylamidinophenoxy)-8-N-pyrrolidinylamidinooctane dihydrochloride formation by measuring retention time of metabolite at 0.5 mM after 2 hrs by LC-MS analysis; format: ADME, Microsome; details: 500 µM
[16] = Drug metabolism in human liver microsomes assessed as 1-(4-N-isopropylamidinophenoxy)-8-N-isopropylamidinooctane dihydrochloride formation by measuring retention time of metabolite at 0.5 mM after 2 hrs by HPLC-UV analysis; format: ADME, Microsome; details: 500 µM
[17] = Drug metabolism in human liver microsomes assessed as 1-(4-N-isopropylamidinophenoxy)-8-N-isopropylamidinooctane dihydrochloride formation by measuring disappearance of parent compound at 0.5 mM after 2 hrs by HPLC-UV analysis; format: ADME, Microsome; details: 500 µM

| SMILES | ED50 [1] [mg/kg] | ED50 [2] [mg/kg] | pIC50 [4] | Retention_time [8] [min] | further results |
| --- | --- | --- | --- | --- | --- |
| CCN(CC)CCCC(C)Nc1ccnc2cc(Cl)ccc12 (centres undefined) [CHLOROQUINE] | 1.1 | 3.4 | – | – | – |
| Cc1c(CCO)sc[n+]1CCCCCCCCOc1ccc(/C(N)=N/O)cc1.[Br-] | > 20 | 85 | 6.44 | – | Activity [3]: inactive; Activity [5]: 100%; Ratio ED50 [6]: >0.23 |
| COc1cccc(/C(=N/O)NCCCCCCCCCCCCN/C(=N\O)c2cccc(OC)c2)c1 | > 20 | > 90 | – | – | – |
| C[C@H]1[C@H](OC(=O)CCC(=O)O)O[C@@H]2O[C@@]3(C)CC[C@H]4[C@H](C)CC[C@@H]1[C@@]24OO3 [ARTESUNATE] | 1.2 | – | – | – | – |
| CO/N=C(\NCCCCCCCCCCCCN/C(=N\OC)c1cccc(OC)c1)c1cccc(OC)c1 | > 20 | > 90 | – | – | – |
| Cc1c(CCO)sc[n+]1CCCCCCCCCCCCC(=N)N | – | – | – | – | pIC50 [7]: 8.66 |
| CC(C)NC(=N)CCCCCCCCOc1ccc(C(=N)NC(C)C)cc1.Cl.Cl | 2.8 | 110 | 8.02 | 10.1 | – |
| CO/N=C(\NCCCCCCCCCCCCN/C(=N\OC)c1ccccc1)c1ccccc1 | > 20 | > 90 | – | – | – |
| Br.Br.N/C(=N\O)c1ccc(OCCCCCCCC/C(N)=N\O)cc1 | > 10 | > 180 | 5.70 | 11.5 | Retention_time [9]: 15.6 min; Retention_time [10]: 16.5 min; Retention_time [11]: 17.3 min; metabolised at 2 h, 500 µM [12]: 7%; Stability [13]: Stable; Stability [14]: Stable |
| Cl.Cl.N=C(N)CCCCCCCCOc1ccc(C(=N)N)cc1 | 9 | > 90 | 7.29 | 12.9 | – |
| Cl.Cl.N=C(CCCCCCCCOc1ccc(C(=N)N2CCCC2)cc1)N1CCCC1 | 1.4 | 51 | 7.80 | 11.8 | – |
| COCCc1sc[n+](CCCCCCCCCCCOc2ccc(/C(N)=N/O)cc2)c1C.[Br-] | 8.8 | > 90 | 6.28 | – | – |
| COc1ccc(/C(=N/O)NCCCCCCCCCCCCN/C(=N\O)c2ccc(OC)c(OC)c2)cc1OC | 9.1 | > 90 | – | – | – |
| COc1ccc(/C(=N/O)NCCCCCCCCCCCCN/C(=N\O)c2ccc(OC)cc2)cc1 | > 20 | > 90 | 4.62 | – | – |
| N=C(N)c1ccc(OCCCCCOc2ccc(C(=N)N)cc2)cc1 [PENTAMIDINE] | – | – | – | 25.4 | Retention_time [9]: 25.1 min; metabolised at 2 h, 500 µM [12]: 82% |
| Br.Br.O/N=C(/c1ccc(OCCCCCCCC/C(=N\O)N2CCCC2)cc1)N1CCCC1 | 10 | > 100 | – | 12.6 | Retention_time [9]: 12.3 min; Retention_time [15]: 11.8 min; metabolised at 2 h, 500 µM [12]: 14%; Stability [13]: Stable; Stability [14]: Stable |
| Cc1c(CCO)sc[n+]1CCCCCCCCCCCOc1ccc(/C(N)=N/O)cc1.[Br-] | > 20 | > 90 | 6.50 | – | – |
| Br.Br.CC(C)N/C(=N\O)c1ccc(OCCCCCCCC/C(=N\O)NC(C)C)cc1 | > 20 | > 180 | – | 13.1 | Retention_time [9]: 13.3 min; Retention_time [10]: 12.1 min; Retention_time [16]: 10 min; metabolised at 2 h, 500 µM [12]: 6%; Drug metabolism [17]: 90%; Stability [13]: Stable; Stability [14]: Stable |
| Cl.Cl.N=C(N)CCCCCCCCCCCOc1ccc(C(=N)N)cc1 | 2.2 | – | 6.71 | – | – |
| CO/N=C(\NCCCCCCCCCCCCN/C(=N\OC)c1ccc(OC)c(OC)c1)c1ccc(OC)c(OC)c1 | > 20 | > 90 | – | – | – |
| O/N=C(\NCCCCCCCCCCCCN/C(=N\O)c1ccccc1)c1ccccc1 | > 20 | > 90 | – | – | – |
| Cc1c(CCO)sc[n+]1CCCCCCCCCCCC/C(N)=N/O.[Br-] | 20 | > 180 | 6.62 | – | – |
| N/C(=N\O)c1ccc(OCCCCCOc2ccc(/C(N)=N/O)cc2)cc1 [PENTAMIDINE DAO] | – | – | – | 22.3 | Retention_time [9]: 29 min; metabolised at 2 h, 500 µM [12]: 3%; Stability [13]: Stable; Stability [14]: Stable |
